The target in assay [1] is Glucocorticoid Receptor (GR) (Homo sapiens (Human), UniProt P04150). In words: LanthaScreen TR-FRET GR Competitive Binding Assay (cell free).
For assay [2], the system named is GR activation in 293/PRLR/GRE-Luc cells (HEK293/9xUAS-Luc2P/pBind-GR/PRLR-HA high cells). In words: GR co-activator luciferase reporter cell based assay in 293/PRLR/GRE-Luc cells. On the set-up: species or system human. The following applies: for Emax: HEK293, read-out: Activation (fold activation relative to Budesonide) in HEK293/9xUAS-Luc2P/pBind-GR/PRLR-HA high cells; for HEK293/9xUAS-Luc2P/pBind-GR/PRLR-HA high cells activation relative to Budesonide: fold activation vs Budesonide.
Source text: Bioassays described herein were used to assess the efficacy of free steroids and anti-PRLR-ncADCs. In one example, the bioassay assessed the activity of steroids, after internalization of a site-specific anti-PRLR-GC steroid ADC into cells, to bind to pBIND-GR and subsequent luciferase reporter activation. […] Then such stable cell line was further transfected with a chimeric receptor consisting of a GR ligand binding domain fused to the yeast Gal4 DNA binding domain (pBind-GR, Promega Cat #E1581), and a Gal4 upstream activator sequence (9×Gal4UAS-Luc2P) that drives luciferase gene expression.
(§1) For this assay, 20,000 cells were seeded in 96-well plates in media containing DMEM supplemented with 10% FBS and pencillin/streptomycin (complete media) and grown overnight at 37° C. in 5% CO2. […] Luciferase activity was determined by addition of OneGlo™ reagent (Promega, Cat #E6130) and relative light units (RLUs) were measured on a Victor luminometer (Perkin Elmer). The EC50 values were determined from a four-parameter logistic equation over a 10 point response curve using GraphPad Prism.
as §1, with “One-Glo™” for “OneGlo™”, “10-point” for “10 point”, “Prism. […] Minimal activation in this assay is defined as less than 10% of the maximal activation measured with the free payload.” for “Prism.”
On the technique in general: In a reporter assay the amount or activity of a reporter protein is the signal.

Setting [3] is: Homo sapiens, 72 hours of incubation.
Setting [4] is: Homo sapiens, HEK293, 72 hours of incubation, read-out: HEK293/9xUAS-Luc2P/pBind-GR/PRLR-HA high cells EC50.
The mark [5] stands for this setting: Homo sapiens, HEK293, read-out: HEK293/9xUAS-Luc2P/pBind-GR/PRLR-HA high cells EC50.

The term IC50 denotes the concentration needed to halve the response being measured. Lower therefore signals greater potency.

Structures can show the parent of a compound that is named as a salt. Where two headings read alike, the source gives them in different places.

Sequence of Glucocorticoid Receptor (GR) (P04150 524-758): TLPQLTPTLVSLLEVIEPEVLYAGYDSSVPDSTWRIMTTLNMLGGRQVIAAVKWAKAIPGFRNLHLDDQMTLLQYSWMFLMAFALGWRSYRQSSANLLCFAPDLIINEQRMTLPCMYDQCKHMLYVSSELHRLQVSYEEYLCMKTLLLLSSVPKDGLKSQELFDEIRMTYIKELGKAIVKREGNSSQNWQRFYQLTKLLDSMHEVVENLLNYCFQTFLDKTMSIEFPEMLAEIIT

The compound `CCC[C@@H]1O[C@@H]2C[C@H]3[C@@H]4CCC5=CC(=O)C=C[C@]5(C)[C@H]4[C@@H](O)C[C@]3(C)[C@]2(C(=O)COc2ccc(NC)cc2)O1` [11-8 R, (1S,2S,4R,6R,8S,9S,11S,12S,13R)-11-Hydroxyl-9,13-dimethyl-8-{2-[4-(methylamino)phenoxy]acetyl}-6-propyl-5,7-dioxapentacyclo-[10.8.0.0^2,90.0^4,80.0^13,18]icosa-, 14,17-dien-16-one] registered an IC50 in assay [1] of 10 to 100 nM. Moreover, the Emax in assay [2] (setting [3]) is more than 75%. Moreover, the EC50 in assay [2] (setting [4]) was less than 10 nM.

As for `CCC[C@@H]1O[C@@H]2C[C@H]3[C@@H]4CCC5=CC(=O)C=C[C@]5(C)[C@H]4[C@@H](O)C[C@]3(C)[C@]2(C(=O)COc2ccc(N)cc2)O1` [11-5 R, (1S,2S,4R,8S,9S,11S,12S,13R)-8-[2-(4-Aminophenoxy)acetyl]-11-hydroxy-9,13-dimethyl-6-propyl-5,7-dioxapentacyclo[10.8.0.0^2,90.0^4,80.0^13,18]icosa-14,17-dien-16-one], the IC50 in assay [1] is 10 to 100 nM. In addition, in assay [2] (setting [3]), the Emax was more than 75%. Further, the EC50 in assay [2] (setting [4]) is less than 10 nM.

On to `CC(=O)OCC(=O)[C@@]1(OC(C)=O)[C@@H](C)C[C@H]2[C@@H]3C[C@H](F)C4=CC(=O)C=C[C@]4(C)[C@@]3(F)[C@@H](O)C[C@@]21C` [Diflorasone, diflorasone, reference compound], for which, in assay [2] (setting [3]), the Emax is more than 75%. Also, in assay [2] (setting [4]), the EC50 was less than 10 nM.

As to `CCCC1O[C@@H]2C[C@H]3[C@@H]4C[C@H](F)C5=CC(=O)C=C[C@]5(C)[C@@]4(F)[C@@H](O)C[C@]3(C)[C@]2(C(=O)COc2ccc(CN)cc2)O1` (stereo partly drawn) [11-15 R/S, (1S,2S,4R,8S,9S,11S,12R,13S,19S)-8-{2-[4-(Aminomethyl)phenoxy]acetyl}-12,19-difluoro-11-hydroxy-9,13-dimethyl-6-propyl-5,7-dioxapentacyclo[10.8.0.0^2,90.0^4,80.0^13,18]icosa-14,17-dien-16-one], the IC50 in assay [1] was less than 10 nM. In addition, the Emax in assay [2] (setting [3]) lay in the range of 20 to 75%. The EC50 in assay [2] (setting [4]) was in the range of 10 to 100 nM.

In turn, `CC(C)C(=O)OCC(=O)[C@@]12OC(Cc3ccc(N)cc3)O[C@@H]1C[C@H]1[C@@H]3CCC4=CC(=O)C=C[C@]4(C)[C@H]3[C@@H](O)C[C@@]12C` (stereo partly drawn) [8-2 R/S, 2[(1S,2S,4R,8S,9S,11S,12S,13R)-6[(4-Aminophenyl)methyl]-11-hydroxy-9,13-dimethyl-16-oxo-5,7-dioxapentacyclo[10.8.0.0^2,90.0^4,80.0^13,18]icosa-14,17-dien-8-yl]-2-oxoethyl 2-methylpropanoate] yielded an IC50 in assay [1] of less than 10 nM. In assay [2] (setting [3]), the Emax is less than 20%. In assay [2] (setting [4]), the EC50 is more than 100 nM.

Consider `C[C@@H]1C[C@H]2[C@@H]3CCC4=CC(=O)C=C[C@]4(C)[C@@]3(F)[C@@H](O)C[C@]2(C)[C@@]1(O)C(=O)CO` [compound 1c, dexamethasone, reference compound], for which, in assay [2] (293/PRLR/GRE-Luc cells, 72 hours, ADCs with or without cyclodextrin linkers, read-out: EC50), the EC50 came out at 8.4 nM. In assay [2] (293/PRLR/GRE-Luc cells, 72 hours, relative to free payload), the “Maximal Activation” value is “Full (Full activation in this assay is defined between 90 and 100% of the maximal activation measured with the free payload)”.

`CCC[C@H]1O[C@@H]2C[C@H]3[C@@H]4CCC5=CC(=O)C=C[C@]5(C)[C@H]4[C@@H](O)C[C@]3(C)[C@]2(C(=O)COc2ccc(N)cc2)O1` [11-5 S, (1S,2S,4R,8S,9S,11S,12S,13R)-8-[2-(4-Aminophenoxy)acetyl]-11-hydroxy-9,13-dimethyl-6-propyl-5,7-dioxapentacyclo[10.8.0.0^2,90.0^4,80.0^13,18]icosa-14,17-dien-16-one]: the IC50 in assay [1] was 10 to 100 nM. Besides, the Emax in assay [2] (setting [3]) is more than 75%. In addition, the EC50 in assay [2] (setting [4]) was less than 10 nM.

In turn, `CCCC1O[C@@H]2C[C@H]3[C@@H]4C[C@H](F)C5=CC(=O)C=C[C@]5(C)[C@@]4(F)[C@@H](O)C[C@]3(C)[C@]2(C(=O)CN)O1` (stereo partly drawn) [11-19 R/S, (1S,2S,4R,6R,8S,9S,11S,12R,13S,19S)-8-(2-Aminoacetyl)-12,19-difluoro-11-hydroxy-9,13-dimethyl-6-propyl-5,7-dioxapentacyclo[10.8.0.0^2,90.0^4,80.0^13,18]icosa-14,17-dien-16-one; trifluoroacetic acid salt] registered an IC50 in assay [1] of less than 10 nM. In addition, the Emax in assay [2] (setting [3]) is more than 75%. Also, the EC50 in assay [2] (setting [4]) is less than 10 nM.

As to `CC(C)C(=O)OCC(=O)[C@@]12O[C@H](c3ccc(N)cc3)O[C@@H]1C[C@H]1[C@@H]3CCC4=CC(=O)C=C[C@]4(C)[C@H]3[C@@H](O)C[C@@]12C` [8-1 R, 2[(1S,2S,4R,8S,9S,11S,12S,13R)-6-(4-Aminophenyl)-11-hydroxy-9,13-dimethyl-16-oxo-5,7-dioxapentacyclo[10.8.0.0^2,90.0^4,80.0^13,18]icosa-14,17-dien-8-yl]-2-oxoethyl 2-methylpropanoate], the “Activation (fold activation relative to Budesonide) in HEK293/9xUAS-Luc2P/pBind-GR/PRLR-HA high cells” value in assay [2] (72 hours of incubation) is reported as “full activation”. Besides, the EC50 in assay [2] (setting [4]) was in the range of 10 to 100 nM.

“(6S,8S,9S,10R,11S,13S,14S,17R)-17-(2-(4-Aminophenoxy)acetyl)-11,17-dihydroxy-6,10,13-trimethyl-6,7,8,9,10,11,12,13,14,15,16,17-dodecahydro-3H-cyclopenta[a]phenanthren-3-one [Compound 6-VI]”: in assay [2], the “HEK293/9xUAS-Luc2P/pBind-GR/PRLR-HA high cells activation relative to Budesonide” value is given as “Full”. Further, the EC50 in assay [2] (read-out: HEK293/9xUAS-Luc2P/pBind-GR/PRLR-HA high cells EC50) was less than 10 nM.

Take `C[C@]12C=CC(=O)C=C1CC[C@@H]1[C@@H]2[C@@H](O)C[C@@]2(C)[C@H]1C[C@H]1O[C@H](c3ccc(N)cc3)O[C@]12C(=O)CO` [7-1 S, (1S,2S,4R,6S,8S,9S,11S,12S,13R)-6-(4 Aminophenyl)-11-hydroxy-8-(2-hydroxyacetyl)-9,13-dimethyl-5,7-dioxapentacyclo[10.8.0.0^2,90.0^4,80.0^13,18]icosa-14,17-dien-16-one]: the IC50 in assay [1] is less than 10 nM. Also, the Emax in assay [2] (setting [3]) was 20 to 75%. Further, in assay [2] (setting [4]), the EC50 was more than 100 nM.

In the case of `CCCC1O[C@@H]2C[C@H]3[C@@H]4C[C@H](F)C5=CC(=O)C=C[C@]5(C)[C@@]4(F)[C@@H](O)C[C@]3(C)[C@]2(C(=O)CNc2ccc(N)cc2)O1` (stereo partly drawn) [Compound 5-I, (1S,2S,4R,8S,9S,11S,12R,13S,19S)-8-{2-[(4-Aminophenyl)amino]acetyl}-12,19-difluoro-11-hydroxy-9,13-dimethyl-6-propyl-5,7-dioxapentacyclo[10.8.0.0^2,90.0^4,80.0^13,18]icosa-14,17-dien-16-one Trifluoroacetate], the EC50 in assay [2] (setting [5]) is less than 10 nM. The “HEK293/9xUAS-Luc2P/pBind-GR/PRLR-HA high cells activation relative to Budesonide” value in assay [2] is given as “Full”.

With `C[C@]12C=CC(=O)C=C1CC[C@@H]1[C@@H]2[C@@H](O)C[C@@]2(C)[C@H]1C[C@H]1O[C@@H](c3ccc(N)cc3)O[C@]12C(=O)CO` [Compound 7-1R], the GRE-Luc activation entry in assay [2] (293/PRLR/GRE-Luc cells, 72 hours) was “full GRE-Luc activation”. The EC50 in assay [2] (293/PRLR/GRE-Luc cells, 72 hours, read-out: EC50 of GRE-Luc activation) is 10 to 100 nM.

On to `CCCC1O[C@@H]2C[C@H]3[C@@H]4C[C@H](F)C5=CC(=O)C=C[C@]5(C)[C@@]4(F)[C@@H](O)C[C@]3(C)[C@]2(C(=O)COc2ccc(N)c(F)c2)O1` (stereo partly drawn) [Compound 6-III, (1S,2S,4R,8S,9S,11S,12R,13S,19S)-8-[2-(4-Amino-3-fluorophenoxy)acetyl]-12,19-difluoro-11-hydroxy-9,13-dimethyl-6-propyl-5,7-dioxapentacyclo[10.8.0.0^2,90.0^4,8.0^13,18]icosa-14,17-dien-16-one], for which, in assay [2] (setting [5]), the EC50 is less than 10 nM.

Source of the values: patent publication US11760775B2, “Steroids and protein-conjugates thereof” (Regeneron Pharmaceuticals, Inc., priority 2016, dated 2023).
